We go through one molecule from patent US11957671B2, “Benzodioxane modulators of leukotriene A4 hydrolase (LTA4H) for prevention and treatment of aging-associated diseases” (Alkahest, Inc., priority 2021, dated 2024).

Data set [1] relates to aged mice. Briefly: LPS model of blood-brain-barrier (BBB) leakiness. It counts as in vivo, mouse. The protocol: FIGS. 63-66 report the results of an in vivo model of blood-brain-barrier (BBB) leakiness. Aged mice were treated for 4 weeks with vehicle or Compound 1 followed by an acute high dose of LPS was used to induce BBB breakdown. Sodium fluorescein was injected by tail vein and leakiness of sodium fluorescein into the brain was measured using a fluorescent plate reader. FIG. 63 reports that LPS induced BBB breakdown in young and aged mice. […] (n=69, 57)). FIG. 65 reports the GFAP intensity across a 60 micron (μm) long line drawn across the large descending vessels of the CA1 hippocampus after 4 weeks of dosing with vehicle or Compound 1 followed by a high dose LPS to induced BBB breakdown. (Mixed effects analysis with repeated measures. (n=69, 57)). FIG. 66 reports the results of in vivo target engagement assays with Compound 1 in mouse plasma. Whole blood from mice dosed with Compound 1 for 4 weeks followed by high dose LPS was incubated with a calcium ionophore to stimulate LTB4 release. Plasma was generated and LTB4 levels were measured using ELISA. LTB4 is the product of LTA4H hydrolysis so this assay reports on LTA4H enzymatic activity. […] (Kruskal-Wallis test with Dunn's multiple comparisons with post-hoc Mann-Whitney test. ****p<0.0001 (n=8, 9, 8, 9)).

Data set [2] concerns aged C57BL6 mice. Description: Open Field. The data set is classed as in vivo, mouse. Here is the method:
The open field test was used to evaluate general locomotor activity and exploratory behavior in a novel environment. It consisted of a square arena (16 in ×16 in). Mice were brought to the experimental room for at least 30 min of acclimation to the experimental room conditions (dim lighting) prior to testing. Mice were placed in the center of the arena, recorded, and tracked within a predefined peripheral and center space using the photobeam activity system automated software (ANY-maze) for 15 min. Total distance traveled, average velocity, and time spent in the peripheral and center zones were analyzed.
(§1) Three independent cohorts of aged wild type (WT; C57BL/6) mice between twenty to twenty-two months of age (20-22 mo) were homogenized into two (2) groups by body weight, total distance travelled in the open field test, and average velocity in the open field test. Group 1 was administered vehicle control PO daily. Group 2 was administered 10 mg/kg of the LTA4H inhibitor Compound 1 PO daily. Both groups were dosed for either 10 days or 4 weeks daily. Behavioral assays were run during the last week of dosing and animals were sacrificed at the end of the study for histological and molecular assays.

Data set [3] concerns aged wild type (WT; C57BL/6) mice. Briefly: Contextual Fear Conditioning (CFC). Particulars: 10 mg/kg PO daily, after 8 days of treatment. It counts as in vivo, mouse. Here is the method:
Mice were brought into the testing room immediately before their trial to avoid exposure to sounds and scents from testing. Day 1: For training, mice were placed in the chambers, bright house light and fan on, for 2 minutes. Then an auditory cue (2000 Hz, 70 dB, conditioned stimulus (CS)) was presented for 30 seconds. A 2 second foot shock (0.6 mA; unconditioned stimulus (US)) was administered for the final 2 seconds of the CS. This procedure was repeated once, each after a 2-minute interval, and the mouse was removed from the chamber 30 seconds after the second shock. The pans, chamber walls and grid floors were cleaned with 70% ethanol between trials. Day 2: […] after the training, the mouse was returned to the same chamber in which the training occurred (memory for context), and freezing behavior was recorded for 3 min. The mouse was returned to its home cage. The pans, chamber walls, and grid floors were cleaned with 70% ethanol between trials. Day 3: 24 hours after context testing, the mouse was returned to the same chamber and freezing was recorded in a novel environment (altered context) and in response to the cue (memory for cue). […] The mouse was placed in the novel environment and freezing was recorded for 2 minutes. The auditory cue (2000 Hz, 70 dB, CS) was then presented for 30 seconds, and freezing was again recorded for 2 minutes. […]

In data set [4] the test system is aged C57BL6 mice. Briefly: Inverted Wire Hang. It counts as in vivo, mouse. Particulars: 12 days of dosing. Here is the method:
Mice were brought into the experimental room for at least 20 minutes of acclimation to the experimental room conditions (bright lighting) prior to testing. Each mouse was placed in the center of the grid. Then swiftly in one continuous motion the grid was inverted 180 degrees to suspend the mouse upside down with their nose being the last part of the mouse to be suspended. The timer was started once the mouse was completely suspended and time to fall was recorded. Mice were tested 3 times with no rest period between each test with a maximum suspension time of 120 seconds. The maximum and average time to fall were scored for each animal.

Data set [5] concerns LTA4H hydrolysis activity in mouse whole blood. Briefly: Ex Vivo LTB4 Assay, mouse blood. The data set is classed as cell-based. Particulars: mouse whole blood incubated with compound. The protocol:
Whole blood was incubated with Compound 1 or vehicle and then a calcium ionophore (Calcimycin, A23187), or 10% DMSO. LTB4 levels in plasma were measured using ELISA.
FIGS. 36-37 report the results of ex vivo target engagement assays with Compound 1 in human and mouse plasma. Whole blood from human or mouse was incubated with vehicle or Compound 1, following by a calcium ionophore stimulation. Plasma was generated and LTB4 levels were measured using ELISA. LTB4 is the product of LTA4H hydrolysis so this assay reports on LTA4H enzymatic activity.

The subject of data set [6] is aged mice. Briefly: CA1 synapse density by histology. To be noted: preliminary data, pre- and post-synaptic protein staining. The data set is classed as in vivo, mouse.
Data set [7] has as its system aged wild type (WT; C57BL/6) mice. Briefly: Y-Maze. It counts as in vivo, mouse. To be noted: 10 mg/kg PO daily. Here is the method: A large Y-maze test assessed short-term memory of the familiarity of a specific context. Mice were brought to the experimental room for at least 30 min of acclimation to the experimental room conditions (dim lighting) prior to testing. For the initial training trial, the mouse was placed at the end of one arm of a large Y-maze designated “start arm” (arm length: 15 inches). The third arm of the maze was blocked off, allowing the mouse to explore two of the three arms freely (“start arm” and “familiar arm”) for 5 min. Each arm contained spatial cues. Three hours later, the mouse was placed back into the maze in the “start arm,” and allowed to explore all three arms with the third arm unblocked (“novel arm”). Movements in and out of each arm were tracked using automated tracking software (ANY-maze). Testing was performed under dim lighting, and the apparatus was cleaned with 70% ethanol between trials. The time spent and number of entireties into the “novel arm” and “familiar arm” were analyzed, as well as total distance travelled and velocity as measures of general locomotor activity.
as §1

For the molecule `O=C(O)C1CCN(Cc2ccc([C@H]3COc4ccccc4O3)cc2)CC1` [Example 1, 1-{4-[(2S)-2,3-dihydro-1,4-benzodioxin-2-yl]benzyl}piperidine-4-carboxylic acid], the “LTB4 levels in calcimycin stimulated plasma” value in the data set with aged mice [1] (4 weeks of dosing followed by LPS) is “trending reduction”. Also, the “AQP4 intensity across large descending vessels of CA1 hippocampus” value in the data set on aged mice [1] (4 weeks of dosing then high dose LPS) is given as “trending reduction in AQP4 intensity”. In addition, the “LTB4 levels in calcimycin stimulated plasma” value in the data set with aged mice [1] (4 weeks of dosing, without LPS) was “significant reduction in LTB4 levels”. The “BBB leakiness (sodium fluorescein in brain)” value in the data set with aged mice [1] (aged mice, 4 weeks treatment then acute high dose LPS) was “trend towards reduced BBB leakiness”. Further, in the data set on aged C57BL6 mice [2] (4 weeks of dosing), the “time spent in periphery (P) or center (C)” value was “no difference between time spent in the periphery (P) or center (C)”, the “total distance traveled in open field” value is reported as “no change in total distance traveled” and the “velocity in open field” value is given as “no change in velocity”. Further, in the data set with aged C57BL6 mice [2] (10 days of dosing), the “time spent in periphery (P) or center (C)” value is reported as “no difference between time spent in the periphery (P) or center (C)”, the “total distance traveled in open field” value is “no change in total distance traveled” and the “velocity in open field” value is recorded as “no change in velocity”. Besides, the “percent time freezing during testing phase of CFC” value in data set [3] is “increased freezing time”. In the data set with aged C57BL6 mice [4], the “maximum hang time in the wire hang test” value was “no change in maximum hang time”. In addition, the “LTB4 plasma levels after calcium ionophore stimulation” value in data set [5] was “reduces LTB4 plasma levels to unstimulated levels”. Besides, the “synapse density in the CA1 region of the hippocampus” value in the data set on aged mice [6] is “trends towards increasing synapse density”. In data set [7] (after 12 days of treatment), the “entries into the N and F arms during testing” value was “enter the N and F arms equally”; the “percent time spent in the novel (N) or familiar (F) arms during testing” value is “significantly more time in the novel arm”. Also, in data set [7] (after 18 days of treatment), the “percent time spent in the novel (N) or familiar (F) arms during testing” value was “significantly improved”; the “percentage of entries into the N and F arms” value is “enter the novel arm significantly more than the familiar arm”. Moreover, in data set [7] (after 26 days of treatment), the “percentage of entries into the N and F arms” value is “enter the novel arm significantly more than the familiar arm”.
